The source made the active and inactive calls. No cut-off for these calls is given here.
How the values were obtained:
[1] = test system: A549; assay: Induction of apoptosis in human A549 cells assessed as cellular rupture into debris at IC50 by fluorescence microscopy; type: functional, cell-based
[2] = test system: A549; assay: Cytotoxicity against human A549 cells at 0.01 to 100 uM by haemocytometry; type: functional, cell-based; conditions: TDE = time-dependent effect
[3] = test system: A549; assay: Ratio of perifosine IC50 to compound IC50 for human A549 cells; type: functional
[4] = test system: A549; assay: Cytotoxicity against human A549 cells after 24 to 72 hrs by haemocytometry; type: functional, cell-based
[5] = test system: A549; assay: Inhibition of Akt phosphorylation at Thr308 site in human A549 cells at IC50 after 72 hrs by ELISA; type: cell-based
[6] = test system: A549; assay: Cell cycle arrest in human A549 cells assessed as decrease in S cells at IC50 after 24 hrs followed by compound washout by propidium iodide staining-based FACS analysis; type: functional; set-up: scale not given: the % may be the effect or the level left
[7] = test system: A549; assay: Induction of apoptosis in human A549 cells assessed as nuclear fragmentation at IC50 by fluorescence microscopy; type: functional, cell-based
[8] = test system: A549; assay: Cell cycle arrest in human A549 cells assessed as decrease in G1 cells at IC50 after 24 hrs followed by compound washout by propidium iodide staining-based FACS analysis; type: functional; set-up: scale not given: the % may be the effect or the level left
[9] = test system: A549; assay: Ratio of sunitinib IC50 to compound IC50 for human A549 cells; type: functional
[10] = test system: A549; assay: Cell cycle arrest in human A549 cells assessed as decrease in G2 cells at IC50 after 24 hrs followed by compound washout by propidium iodide staining-based FACS analysis; type: functional; set-up: scale not given: the % may be the effect or the level left
[11] = test system: A549; assay: Inhibition of Akt phosphorylation at Ser473 site in human A549 cells at IC50 after 72 hrs by ELISA; type: cell-based
[12] = test system: A549; assay: Induction of apoptosis in human A549 cells assessed as cell shrinkage at IC50 by fluorescence microscopy; type: functional, cell-based
[13] = test system: A549; assay: Inhibition of Akt phosphorylation in human A549 cells assessed as inhibition of FoxO3a phosphorylation at Thr32 at 10 uM after 3 hrs followed by 10 mins incubation in 10% FBS by Western blotting analysis; type: cell-based
[14] = test system: A549; assay: Inhibition of Akt phosphorylation at Thr308 site in human A549 cells at 10 uM after 3 hrs followed by 10 mins incubation in 10% FBS by Western blotting analysis; type: cell-based
[15] = test system: MDA-MB-231; assay: Cytotoxicity against human MDA-MB-231 cells at 1 to 10 uM after 72 hrs by haemocytometry; type: functional, cell-based
[16] = target: Receptor tyrosine-protein kinase erbB-2 (Homo sapiens) (UniProt P04626); assay: Inhibition of Her2 phosphorylation at Tyr1221/1222 in human A549 cells at 10 uM after 3 hrs followed by 10 mins incubation in 10% FBS by Western blotting analysis; type: cell-based
Chain of Receptor tyrosine-protein kinase erbB-2 (Homo sapiens) (P04626 whole entry): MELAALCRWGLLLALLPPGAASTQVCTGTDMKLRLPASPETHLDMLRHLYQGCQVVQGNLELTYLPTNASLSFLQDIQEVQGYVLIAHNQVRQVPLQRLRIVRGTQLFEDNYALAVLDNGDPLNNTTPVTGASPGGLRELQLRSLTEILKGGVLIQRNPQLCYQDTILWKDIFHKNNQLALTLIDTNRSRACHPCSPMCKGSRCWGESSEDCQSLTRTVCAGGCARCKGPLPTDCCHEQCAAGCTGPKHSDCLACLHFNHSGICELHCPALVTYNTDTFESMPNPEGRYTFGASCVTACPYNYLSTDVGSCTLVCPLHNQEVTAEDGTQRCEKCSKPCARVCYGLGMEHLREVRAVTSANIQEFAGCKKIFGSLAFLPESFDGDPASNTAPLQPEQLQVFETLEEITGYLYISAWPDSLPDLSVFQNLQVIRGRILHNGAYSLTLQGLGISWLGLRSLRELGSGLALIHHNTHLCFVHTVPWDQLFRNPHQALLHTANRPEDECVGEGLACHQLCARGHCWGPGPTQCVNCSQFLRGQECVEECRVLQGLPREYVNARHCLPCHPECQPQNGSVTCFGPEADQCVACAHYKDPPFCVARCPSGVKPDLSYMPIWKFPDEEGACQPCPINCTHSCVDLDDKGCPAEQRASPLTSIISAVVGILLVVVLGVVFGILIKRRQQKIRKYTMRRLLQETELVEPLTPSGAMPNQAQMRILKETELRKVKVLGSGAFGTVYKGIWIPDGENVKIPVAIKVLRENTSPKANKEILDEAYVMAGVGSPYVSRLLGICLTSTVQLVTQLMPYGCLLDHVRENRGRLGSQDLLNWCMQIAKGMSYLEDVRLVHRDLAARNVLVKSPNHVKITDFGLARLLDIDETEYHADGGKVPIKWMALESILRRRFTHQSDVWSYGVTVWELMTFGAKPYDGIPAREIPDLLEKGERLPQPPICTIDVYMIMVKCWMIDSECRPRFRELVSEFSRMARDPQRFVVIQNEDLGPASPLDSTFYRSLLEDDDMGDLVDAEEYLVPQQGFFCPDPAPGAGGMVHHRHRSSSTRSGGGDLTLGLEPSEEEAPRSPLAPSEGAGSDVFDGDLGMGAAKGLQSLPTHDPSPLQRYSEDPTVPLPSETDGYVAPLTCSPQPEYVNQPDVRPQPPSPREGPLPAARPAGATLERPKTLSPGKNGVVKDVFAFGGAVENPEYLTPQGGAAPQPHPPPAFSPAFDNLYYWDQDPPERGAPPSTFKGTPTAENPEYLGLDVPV

[17] = test system: A549; assay: Inhibition of Akt phosphorylation in human A549 cells assessed as inhibition of FoxO1 phosphorylation at Thr24 at 10 uM after 3 hrs followed by 10 mins incubation in 10% FBS by Western blotting analysis; type: cell-based
[18] = target: Epidermal growth factor receptor (Homo sapiens) (UniProt P00533); assay: Inhibition of EGFR phosphorylation at […] in human A549 cells at 10 uM after 3 hrs followed by 10 mins incubation in 10% FBS by Western blotting analysis; type: cell-based
Chain of Epidermal growth factor receptor (Homo sapiens) (P00533 whole entry): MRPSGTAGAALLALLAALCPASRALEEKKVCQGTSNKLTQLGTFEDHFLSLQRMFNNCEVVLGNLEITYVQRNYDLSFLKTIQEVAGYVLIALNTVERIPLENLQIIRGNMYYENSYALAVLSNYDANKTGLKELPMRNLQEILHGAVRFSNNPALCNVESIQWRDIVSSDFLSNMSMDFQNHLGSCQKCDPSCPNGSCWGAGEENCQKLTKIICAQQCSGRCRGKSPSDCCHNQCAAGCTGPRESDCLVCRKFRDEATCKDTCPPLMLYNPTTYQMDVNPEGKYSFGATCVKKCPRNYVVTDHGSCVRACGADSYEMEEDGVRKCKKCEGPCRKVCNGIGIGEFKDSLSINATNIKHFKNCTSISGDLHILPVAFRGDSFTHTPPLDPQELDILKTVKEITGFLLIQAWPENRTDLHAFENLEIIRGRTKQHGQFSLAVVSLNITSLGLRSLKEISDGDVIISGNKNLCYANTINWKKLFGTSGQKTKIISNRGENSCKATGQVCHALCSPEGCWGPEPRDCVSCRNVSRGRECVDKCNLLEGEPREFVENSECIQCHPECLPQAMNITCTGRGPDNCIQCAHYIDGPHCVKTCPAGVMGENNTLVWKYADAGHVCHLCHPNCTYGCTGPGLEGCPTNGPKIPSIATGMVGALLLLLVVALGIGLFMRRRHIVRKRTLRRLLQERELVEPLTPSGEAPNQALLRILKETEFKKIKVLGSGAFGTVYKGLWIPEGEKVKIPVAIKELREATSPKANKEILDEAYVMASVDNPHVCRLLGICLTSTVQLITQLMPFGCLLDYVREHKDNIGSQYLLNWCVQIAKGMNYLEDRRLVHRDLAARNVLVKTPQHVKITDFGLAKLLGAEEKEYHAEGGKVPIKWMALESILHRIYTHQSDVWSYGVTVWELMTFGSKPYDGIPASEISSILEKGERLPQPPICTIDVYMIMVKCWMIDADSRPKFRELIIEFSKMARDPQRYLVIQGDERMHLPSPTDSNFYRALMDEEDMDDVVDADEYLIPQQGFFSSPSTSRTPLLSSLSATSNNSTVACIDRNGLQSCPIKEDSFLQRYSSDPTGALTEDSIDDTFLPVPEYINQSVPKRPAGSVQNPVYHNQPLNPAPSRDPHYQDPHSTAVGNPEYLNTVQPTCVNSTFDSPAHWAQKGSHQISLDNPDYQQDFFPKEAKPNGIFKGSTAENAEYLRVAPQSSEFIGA

[19] = test system: A549; assay: Induction of apoptosis in human A549 cells assessed as apoptotic index at IC50 by fluorescence microscopy relative to control; type: functional
[20] = test system: MDA-MB-231; assay: Selectivity for human HCC827 cells over human MDA-MB-231 cells; type: functional
[21] = Cytotoxicity against human HCC827 cells after 24 to 72 hrs by haemocytometry; type: functional, cell-based

SMILES | Activity [1] | Activity [2] | Ratio IC50 [3] | Activity [4] | IC50 [4] [nM] | inhibition [5] [%] | Activity [6] [%] | Activity [7] | Activity [8] [%] | Ratio IC50 [9] | Activity [10] [%] | inhibition [11] [%] | Activity [12] | Activity [19] [%] | further results
COc1cc2c(cc1OC)CN(CC(=O)Nc1ccc3c(c1)/C(=C/c1cnc[nH]1)C(=O)N3)CC2 | Active | tde | 2 | Dose-dependent effect | 2190 | 20 | -0.51 | Active | -0.1 | 2.5 | -0.61 | 20 | Active |  | 
COc1cc2c(cc1OC)CN(CC(=O)Nc1ccc3c(c1)/C(=C\c1nccn1C)C(=O)N3)CC2 | Active | tde | 2 | Dose-dependent effect | 2750 | 20 | 1.33 | Active | -0.85 | 2.5 | -0.48 | 20 | Active |  | inhibition [13]: Active; inhibition [14]: Active; Activity [15]: inactive; inhibition [16]: inactive; inhibition [17]: Active; inhibition [18]: inactive
COc1cc2c(cc1OC)CN(CC(=O)Nc1ccc3c(c1)CC(=O)N3)CC2 | Active | tde |  | Dose-dependent effect | 16200 | 20 | -4.99 | Active | 19.24 |  | -14.25 | 20 | Active | 12 | 
COc1cc2c(cc1OC)CN(CC(=O)Nc1ccc3c(c1)/C(=C\c1ccccn1)C(=O)N3)CC2 | Active | tde |  | Dose-dependent effect | 20000 | 20 | -2.75 | Active | 1.06 |  | 1.69 | 20 | Active |  | 
CCCCCCCCCCCCCCCCCCOP(=O)([O-])OC1CC[N+](C)(C)CC1 [PERIFOSINE] |  | tde |  | Dose-dependent effect | 4170 |  | -4.05 |  | 18.56 |  | -14.51 |  |  | 32 | 
COc1cc2ncnc(Nc3ccc(F)c(Cl)c3)c2cc1OCCCN1CCOCC1 [GEFITINIB] |  |  |  |  |  |  |  |  |  |  |  |  |  |  | Selectivity ratio [20]: 1700
COc1cc2c(cc1OC)CN(CC(=O)Nc1ccc3c(c1)/C(=C/c1cccs1)C(=O)N3)CC2 | Active | tde | 2 | Dose-dependent effect | 660 | 20 | -10.23 | Active | 21.04 | 2.5 | -11.2 | 20 | Active | 24 | inhibition [13]: Active; inhibition [14]: Active; Activity [15]: inactive; IC50 [21]: 45 nM; inhibition [16]: inactive; inhibition [17]: Active; inhibition [18]: inactive

Reference: ChEMBL document CHEMBL3091407, “Synthesis of Novel 3,5-Disubstituted-2-oxindole Derivatives As Antitumor Agents against Human Nonsmall Cell Lung Cancer” (ACS Med Chem Lett, 2013)
